Laboratory results as given in PubChem BioAssay AID330 (DTP/NCI, 2004).
Values joined by “and” are separate entries in the source; they are usually repeats but may differ in a detail not shown here. Equal entries are not always repeated. Toxic doses and inconclusive results are not listed. Rule for the calls: active = survival T/C of 150% or more; inactive = T/C below 125% in these data.

Test system: P388 leukemia ip, CD2F1 mice, survival T/C
Test: NCI In Vivo Anticancer Drug Screen. Data for tumor model P388 Leukemia (intraperitoneal) in CD2F1 (CDF1) mice
Conditions: endpoint: median survival time, higher = longer survival
Method in brief: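 Mice carrying the transplanted tumor received test compound or vehicle. Survival was recorded in each group, and the value is the treated-group measurement divided by that of the vehicle-treated control group.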

Measured: T/C

COc1cc([C@H]2OC[C@H]3[C@@H]2CO[C@@H]3c2cc(OC)c3c(c2)OCO3)cc(OC)c1OC
inactive: dose: 9.75 mg/kg/injection, schedule: Q01DX009 (ip), vehicle: saline + Tween-80 + alcohol 93 % of control | dose: 19.5 mg/kg/injection, schedule: Q01DX009 (ip), vehicle: saline + Tween-80 + alcohol 106 % of control | dose: 39.0 mg/kg/injection, schedule: Q01DX009 (ip), vehicle: saline + Tween-80 + alcohol 99 % of control | dose: 78.0 mg/kg/injection, schedule: Q01DX009 (ip), vehicle: saline + Tween-80 + alcohol 107 % of control

O=C(Nc1ccc(CC2=NCCCN2)cc1)c1ccc(C(=O)Nc2ccc(CC3=NCCCN3)cc2)cc1
inactive: dose: 0.78 mg/kg/injection, schedule: Q01DX005 (ip), vehicle: saline with Tween-80 93 % of control | dose: 1.56 mg/kg/injection, schedule: Q01DX005 (ip), vehicle: saline with Tween-80 112 % of control

Brc1cc2c(cc1CC1NCCc3cc4c(cc31)OCO4)OCO2 (configuration not stated)
inactive: dose: 50.0 mg/kg/injection, schedule: Q01DX001 (ip), vehicle: saline + alcohol 97 % of control | dose: 100.0 mg/kg/injection, schedule: Q01DX001 (ip), vehicle: saline + alcohol 100 % of control | dose: 200.0 mg/kg/injection, schedule: Q01DX001 (ip), vehicle: saline + alcohol 103 % of control

Cc1ccc([N+](=O)[O-])cc1NC(=O)COc1cc(Cl)c(Cl)cc1Cl
inactive: dose: 100.0 mg/kg/injection, schedule: Q04DX003 (ip), vehicle: saline with Tween-80 90 % of control | dose: 200.0 mg/kg/injection, schedule: Q04DX003 (ip), vehicle: saline with Tween-80 90 % of control | dose: 400.0 mg/kg/injection, schedule: Q04DX003 (ip), vehicle: saline with Tween-80 95 % of control

C=C(C(=O)O)S(=O)(=O)O
inactive: dose: 7.5 mg/kg/injection, schedule: Q01DX009 (ip), vehicle: saline with Tween-80 102 % of control | dose: 15.0 mg/kg/injection, schedule: Q01DX009 (ip), vehicle: saline with Tween-80 110 % of control | dose: 30.0 mg/kg/injection, schedule: Q01DX009 (ip), vehicle: saline with Tween-80 114 % of control

N#Cc1ncn(Cc2ccccc2)c1N
inactive: dose: 15.0 mg/kg/injection, schedule: Q01DX005 (ip), vehicle: saline with Tween-80 95 % of control | dose: 30.0 mg/kg/injection, schedule: Q01DX005 (ip), vehicle: saline with Tween-80 101 % of control | dose: 60.0 mg/kg/injection, schedule: Q01DX005 (ip), vehicle: saline with Tween-80 105 % of control and 109 % of control

CN(C)c1ccc(-c2nc3c4ccccc4c4ccccc4c3[nH]2)cc1
inactive: dose: 50.0 mg/kg/injection, schedule: Q01DX009 (ip), vehicle: saline with Tween-80 105 % of control | dose: 100.0 mg/kg/injection, schedule: Q01DX009 (ip), vehicle: saline with Tween-80 90 % of control | dose: 200.0 mg/kg/injection, schedule: Q01DX009 (ip), vehicle: saline with Tween-80 87 % of control

CCN(CC)CCNc1ccc(COC(C)=O)c2sc3ccccc3c(=O)c12
inactive: dose: 6.25 mg/kg/injection, schedule: Q01DX005 (ip), vehicle: saline with Tween-80 109 % of control and 123 % of control | dose: 12.5 mg/kg/injection, schedule: Q01DX005 (ip), vehicle: saline with Tween-80 121 % of control | dose: 50.0 mg/kg/injection, schedule: Q01DX005 (ip), vehicle: saline with Tween-80 118 % of control

CN(C)C(=O)C[n+]1ccccc1
inactive: dose: 12.5 mg/kg/injection, schedule: Q01DX009 (ip), vehicle: saline 99 % of control | dose: 25.0 mg/kg/injection, schedule: Q01DX009 (ip), vehicle: saline 98 % of control | dose: 50.0 mg/kg/injection, schedule: Q01DX009 (ip), vehicle: saline 101 % of control
